For assay [1], the target named is T1, Serine/threonine-protein kinase A-Raf (Homo sapiens) (UniProt P10398).
T1 sequence (whole entry): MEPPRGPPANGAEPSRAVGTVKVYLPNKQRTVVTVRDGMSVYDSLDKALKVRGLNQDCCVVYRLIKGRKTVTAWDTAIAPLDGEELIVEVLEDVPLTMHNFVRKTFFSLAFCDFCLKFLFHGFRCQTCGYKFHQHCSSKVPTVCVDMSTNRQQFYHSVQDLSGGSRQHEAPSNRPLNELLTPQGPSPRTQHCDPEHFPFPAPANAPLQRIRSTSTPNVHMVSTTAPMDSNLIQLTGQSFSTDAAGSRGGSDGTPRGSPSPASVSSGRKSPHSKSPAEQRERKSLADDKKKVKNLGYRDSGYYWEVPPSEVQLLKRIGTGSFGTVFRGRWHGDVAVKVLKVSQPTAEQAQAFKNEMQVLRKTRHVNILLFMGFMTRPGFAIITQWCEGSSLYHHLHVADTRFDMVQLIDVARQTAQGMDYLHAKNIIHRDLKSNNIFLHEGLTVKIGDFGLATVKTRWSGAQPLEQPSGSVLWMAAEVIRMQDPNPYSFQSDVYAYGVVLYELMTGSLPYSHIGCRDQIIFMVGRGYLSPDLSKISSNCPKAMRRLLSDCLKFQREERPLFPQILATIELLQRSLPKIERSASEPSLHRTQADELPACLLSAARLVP
In words: Inhibition of human ARAF at 1.82 nM by HotSpot assay relative to control.

The target in assay [2] is Serine/threonine-protein kinase 33 (Homo sapiens) (UniProt Q9BYT3). In words: Inhibition of human STK33 at 1.82 nM by HotSpot assay relative to control.
Chain of Serine/threonine-protein kinase 33 (Homo sapiens) (Q9BYT3 whole entry, looked up): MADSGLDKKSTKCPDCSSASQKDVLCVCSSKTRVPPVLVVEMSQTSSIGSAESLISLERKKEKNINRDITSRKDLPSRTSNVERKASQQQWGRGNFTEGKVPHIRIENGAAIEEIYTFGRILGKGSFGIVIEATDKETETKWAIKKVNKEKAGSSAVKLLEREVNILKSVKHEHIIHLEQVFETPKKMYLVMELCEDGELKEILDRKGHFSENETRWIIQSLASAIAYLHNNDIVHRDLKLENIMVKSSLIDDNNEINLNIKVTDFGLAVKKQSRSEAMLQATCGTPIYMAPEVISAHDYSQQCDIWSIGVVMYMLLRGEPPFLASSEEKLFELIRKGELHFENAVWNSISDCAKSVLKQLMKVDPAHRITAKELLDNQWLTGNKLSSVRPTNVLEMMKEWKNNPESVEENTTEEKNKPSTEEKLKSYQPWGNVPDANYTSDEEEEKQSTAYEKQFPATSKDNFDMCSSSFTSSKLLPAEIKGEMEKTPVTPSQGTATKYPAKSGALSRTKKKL
Assay [3] has as its target T2, Tyrosine-protein kinase Tec (Homo sapiens) (UniProt P42680).
T2 sequence (whole entry): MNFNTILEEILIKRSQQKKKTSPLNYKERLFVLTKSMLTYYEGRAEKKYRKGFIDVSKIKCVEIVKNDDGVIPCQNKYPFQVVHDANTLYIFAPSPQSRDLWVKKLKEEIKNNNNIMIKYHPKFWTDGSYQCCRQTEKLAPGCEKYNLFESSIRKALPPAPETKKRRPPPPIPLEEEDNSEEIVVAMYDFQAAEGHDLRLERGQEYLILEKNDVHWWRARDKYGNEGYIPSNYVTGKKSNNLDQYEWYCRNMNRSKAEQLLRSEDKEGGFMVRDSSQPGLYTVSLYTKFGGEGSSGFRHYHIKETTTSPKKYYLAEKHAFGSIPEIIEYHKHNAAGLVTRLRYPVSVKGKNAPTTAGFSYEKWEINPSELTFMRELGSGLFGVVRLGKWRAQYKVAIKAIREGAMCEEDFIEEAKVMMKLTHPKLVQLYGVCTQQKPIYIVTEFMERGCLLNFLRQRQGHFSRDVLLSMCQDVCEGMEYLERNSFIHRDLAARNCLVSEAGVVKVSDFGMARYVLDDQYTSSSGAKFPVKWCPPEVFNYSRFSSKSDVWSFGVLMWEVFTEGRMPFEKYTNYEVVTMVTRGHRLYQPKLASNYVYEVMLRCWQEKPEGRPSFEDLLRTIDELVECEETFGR
In words: Inhibition of human TEC at 1.82 nM by HotSpot assay relative to control.

Assay [4] deals with T3, Inhibitor of nuclear factor kappa-B kinase subunit beta (Homo sapiens) (UniProt O14920).
T3 sequence (whole entry): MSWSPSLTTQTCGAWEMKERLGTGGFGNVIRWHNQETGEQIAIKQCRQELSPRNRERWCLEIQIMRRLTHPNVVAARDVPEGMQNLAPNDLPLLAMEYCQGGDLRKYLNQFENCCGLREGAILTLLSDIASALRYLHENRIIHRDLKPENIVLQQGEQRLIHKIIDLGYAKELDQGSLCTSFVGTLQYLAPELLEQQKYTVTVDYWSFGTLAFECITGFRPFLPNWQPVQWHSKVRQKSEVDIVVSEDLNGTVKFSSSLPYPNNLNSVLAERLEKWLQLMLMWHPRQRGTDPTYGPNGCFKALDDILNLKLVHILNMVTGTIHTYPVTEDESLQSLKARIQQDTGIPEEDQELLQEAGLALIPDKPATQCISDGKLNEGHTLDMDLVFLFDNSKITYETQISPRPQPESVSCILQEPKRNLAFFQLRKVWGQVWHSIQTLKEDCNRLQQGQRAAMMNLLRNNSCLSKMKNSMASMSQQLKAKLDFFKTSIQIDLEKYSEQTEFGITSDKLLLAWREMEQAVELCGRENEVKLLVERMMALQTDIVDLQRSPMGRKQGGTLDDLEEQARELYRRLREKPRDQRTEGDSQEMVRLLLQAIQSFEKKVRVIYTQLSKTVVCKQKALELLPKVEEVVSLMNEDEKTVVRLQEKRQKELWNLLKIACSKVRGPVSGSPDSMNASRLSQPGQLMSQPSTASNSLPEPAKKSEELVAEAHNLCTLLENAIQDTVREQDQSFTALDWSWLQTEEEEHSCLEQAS
Conditions: dose 1.82 nM.
Description: Inhibition of human IKKb at 1.82 nM by HotSpot assay relative to control

The target of assay [5] is Casein kinase I isoform epsilon (Homo sapiens) (UniProt P49674). The assay is described as follows: Inhibition of human CK1epsilon at 18.6 nM by HotSpot assay relative to control.
Chain of Casein kinase I isoform epsilon (Homo sapiens) (P49674 whole entry, looked up, canonical isoform): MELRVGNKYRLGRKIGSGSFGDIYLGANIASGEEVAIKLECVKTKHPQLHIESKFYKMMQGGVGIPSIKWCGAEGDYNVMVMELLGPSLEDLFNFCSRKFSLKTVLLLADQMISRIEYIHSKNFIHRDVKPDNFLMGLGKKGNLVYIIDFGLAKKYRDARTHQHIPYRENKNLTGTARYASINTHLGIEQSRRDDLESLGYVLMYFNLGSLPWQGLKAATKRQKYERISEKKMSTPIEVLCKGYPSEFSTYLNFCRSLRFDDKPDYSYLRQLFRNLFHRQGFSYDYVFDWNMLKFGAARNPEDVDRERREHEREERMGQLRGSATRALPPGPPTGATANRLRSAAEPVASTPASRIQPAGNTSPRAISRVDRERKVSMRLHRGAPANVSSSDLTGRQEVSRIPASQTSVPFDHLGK
Assay [6] deals with Casein kinase II subunit alpha' (Homo sapiens) (UniProt P19784). In words: Inhibition of human CK2a2 at 18.6 nM by HotSpot assay relative to control.
Chain of Casein kinase II subunit alpha' (Homo sapiens) (P19784 whole entry, looked up): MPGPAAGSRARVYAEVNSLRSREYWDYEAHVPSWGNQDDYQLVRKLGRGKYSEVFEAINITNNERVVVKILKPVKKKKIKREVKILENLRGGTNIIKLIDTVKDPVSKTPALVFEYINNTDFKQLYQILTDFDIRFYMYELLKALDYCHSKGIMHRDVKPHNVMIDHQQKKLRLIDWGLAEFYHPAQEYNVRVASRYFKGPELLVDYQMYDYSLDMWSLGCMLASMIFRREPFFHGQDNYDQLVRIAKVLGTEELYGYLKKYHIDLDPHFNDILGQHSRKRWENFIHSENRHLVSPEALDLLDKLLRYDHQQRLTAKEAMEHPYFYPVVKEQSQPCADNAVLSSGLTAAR
In assay [7] the target is Death-associated protein kinase 2 (Homo sapiens) (UniProt Q9UIK4). In words: Inhibition of human DAPK2 at 18.6 nM by HotSpot assay relative to control.
Chain of Death-associated protein kinase 2 (Homo sapiens) (Q9UIK4 whole entry, looked up): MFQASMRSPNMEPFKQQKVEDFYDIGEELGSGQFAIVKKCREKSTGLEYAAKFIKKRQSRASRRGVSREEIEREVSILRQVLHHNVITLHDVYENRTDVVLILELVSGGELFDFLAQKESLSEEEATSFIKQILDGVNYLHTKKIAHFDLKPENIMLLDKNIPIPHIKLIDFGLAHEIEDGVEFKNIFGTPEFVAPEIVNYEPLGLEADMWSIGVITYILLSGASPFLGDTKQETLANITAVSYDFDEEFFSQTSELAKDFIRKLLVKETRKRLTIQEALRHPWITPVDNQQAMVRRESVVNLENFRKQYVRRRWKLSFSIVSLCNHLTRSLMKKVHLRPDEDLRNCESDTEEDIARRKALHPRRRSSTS
The target in assay [8] is Tyrosine-protein kinase FRK (Homo sapiens) (UniProt P42685). The assay is described as follows: Inhibition of human FRK at 18.6 nM by HotSpot assay relative to control.
Chain of Tyrosine-protein kinase FRK (Homo sapiens) (P42685 whole entry, the tested form may be a part): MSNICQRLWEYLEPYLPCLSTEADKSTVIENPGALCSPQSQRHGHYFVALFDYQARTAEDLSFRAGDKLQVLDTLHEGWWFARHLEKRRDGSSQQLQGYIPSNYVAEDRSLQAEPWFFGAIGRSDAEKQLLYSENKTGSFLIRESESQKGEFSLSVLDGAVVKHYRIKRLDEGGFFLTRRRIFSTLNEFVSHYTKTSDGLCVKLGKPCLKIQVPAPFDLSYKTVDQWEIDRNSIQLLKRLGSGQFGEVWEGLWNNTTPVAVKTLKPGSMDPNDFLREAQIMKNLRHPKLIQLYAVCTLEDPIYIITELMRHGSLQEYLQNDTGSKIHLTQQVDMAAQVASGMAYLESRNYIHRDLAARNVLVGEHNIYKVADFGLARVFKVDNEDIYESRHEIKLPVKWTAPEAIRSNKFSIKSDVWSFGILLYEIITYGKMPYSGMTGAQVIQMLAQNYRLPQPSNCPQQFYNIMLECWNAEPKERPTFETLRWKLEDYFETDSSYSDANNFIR
For assay [9], the target named is PAS domain-containing serine/threonine-protein kinase (Homo sapiens) (UniProt Q96RG2). In words: Inhibition of human PASK at 18.6 nM by HotSpot assay relative to control.
Chain of PAS domain-containing serine/threonine-protein kinase (Homo sapiens) (Q96RG2 whole entry, the tested form may be a part): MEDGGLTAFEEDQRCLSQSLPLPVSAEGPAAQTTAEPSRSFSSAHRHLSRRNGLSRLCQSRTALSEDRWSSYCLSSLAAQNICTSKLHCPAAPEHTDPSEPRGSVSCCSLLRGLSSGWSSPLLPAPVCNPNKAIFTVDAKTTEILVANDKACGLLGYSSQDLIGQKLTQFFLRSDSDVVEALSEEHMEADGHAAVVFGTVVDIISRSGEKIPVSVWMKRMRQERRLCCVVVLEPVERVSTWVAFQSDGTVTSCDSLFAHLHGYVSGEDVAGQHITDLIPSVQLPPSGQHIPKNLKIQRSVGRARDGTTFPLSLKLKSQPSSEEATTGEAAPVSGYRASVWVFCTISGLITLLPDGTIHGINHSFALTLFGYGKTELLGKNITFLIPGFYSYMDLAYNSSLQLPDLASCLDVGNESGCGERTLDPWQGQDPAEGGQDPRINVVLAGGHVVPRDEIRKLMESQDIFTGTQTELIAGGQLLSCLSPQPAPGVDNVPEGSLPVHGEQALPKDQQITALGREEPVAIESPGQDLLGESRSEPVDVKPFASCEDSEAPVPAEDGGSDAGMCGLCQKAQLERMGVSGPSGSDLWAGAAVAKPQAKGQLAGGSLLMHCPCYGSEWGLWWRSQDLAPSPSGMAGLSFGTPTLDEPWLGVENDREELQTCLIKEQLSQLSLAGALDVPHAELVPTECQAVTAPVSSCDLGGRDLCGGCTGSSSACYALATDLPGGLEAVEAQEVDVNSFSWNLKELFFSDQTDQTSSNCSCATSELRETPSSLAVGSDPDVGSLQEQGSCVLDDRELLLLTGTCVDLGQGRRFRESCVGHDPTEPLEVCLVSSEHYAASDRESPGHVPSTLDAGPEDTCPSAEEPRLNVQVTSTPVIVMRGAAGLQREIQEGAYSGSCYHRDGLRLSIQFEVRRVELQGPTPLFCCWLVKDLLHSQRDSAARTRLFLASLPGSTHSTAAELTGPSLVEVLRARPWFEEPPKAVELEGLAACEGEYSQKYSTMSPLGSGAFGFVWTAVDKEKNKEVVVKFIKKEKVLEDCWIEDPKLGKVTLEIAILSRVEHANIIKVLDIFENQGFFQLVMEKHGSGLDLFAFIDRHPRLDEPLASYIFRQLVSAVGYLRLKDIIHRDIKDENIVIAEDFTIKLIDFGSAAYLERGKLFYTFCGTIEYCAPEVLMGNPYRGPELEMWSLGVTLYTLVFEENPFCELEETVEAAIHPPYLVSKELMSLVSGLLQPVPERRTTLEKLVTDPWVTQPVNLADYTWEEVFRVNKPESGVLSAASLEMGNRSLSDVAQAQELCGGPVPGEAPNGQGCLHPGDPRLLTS
Assay [10] addresses Protein kinase C eta type (Homo sapiens) (UniProt P24723). In words: Inhibition of human PKCeta at 18.6 nM by HotSpot assay relative to control.
The target of assay [11] is Serine/threonine-protein kinase PLK2 (Homo sapiens) (UniProt Q9NYY3). In words: Inhibition of human PLK2 at 18.6 nM by HotSpot assay relative to control.
Chain of Serine/threonine-protein kinase PLK2 (Homo sapiens) (Q9NYY3 whole entry, looked up): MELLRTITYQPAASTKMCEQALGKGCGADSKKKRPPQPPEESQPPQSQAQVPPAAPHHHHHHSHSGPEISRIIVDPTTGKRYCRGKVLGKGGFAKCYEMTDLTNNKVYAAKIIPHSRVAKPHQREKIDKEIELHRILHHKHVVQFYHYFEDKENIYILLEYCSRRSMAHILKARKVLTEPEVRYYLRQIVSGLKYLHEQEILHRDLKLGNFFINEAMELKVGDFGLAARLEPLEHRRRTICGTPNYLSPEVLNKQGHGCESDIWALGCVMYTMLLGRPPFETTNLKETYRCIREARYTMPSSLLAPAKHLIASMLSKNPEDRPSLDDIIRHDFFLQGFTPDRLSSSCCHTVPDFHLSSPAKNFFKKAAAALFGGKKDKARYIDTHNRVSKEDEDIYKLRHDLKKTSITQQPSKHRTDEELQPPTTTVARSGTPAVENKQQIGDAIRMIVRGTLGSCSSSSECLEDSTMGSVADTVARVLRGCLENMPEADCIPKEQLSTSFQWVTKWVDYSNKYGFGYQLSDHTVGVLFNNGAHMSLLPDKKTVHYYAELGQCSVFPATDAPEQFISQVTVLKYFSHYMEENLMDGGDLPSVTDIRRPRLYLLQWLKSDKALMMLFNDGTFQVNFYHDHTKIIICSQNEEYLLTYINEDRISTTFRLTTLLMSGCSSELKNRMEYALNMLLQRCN

Chain of Protein kinase C eta type (Homo sapiens) (P24723 whole entry): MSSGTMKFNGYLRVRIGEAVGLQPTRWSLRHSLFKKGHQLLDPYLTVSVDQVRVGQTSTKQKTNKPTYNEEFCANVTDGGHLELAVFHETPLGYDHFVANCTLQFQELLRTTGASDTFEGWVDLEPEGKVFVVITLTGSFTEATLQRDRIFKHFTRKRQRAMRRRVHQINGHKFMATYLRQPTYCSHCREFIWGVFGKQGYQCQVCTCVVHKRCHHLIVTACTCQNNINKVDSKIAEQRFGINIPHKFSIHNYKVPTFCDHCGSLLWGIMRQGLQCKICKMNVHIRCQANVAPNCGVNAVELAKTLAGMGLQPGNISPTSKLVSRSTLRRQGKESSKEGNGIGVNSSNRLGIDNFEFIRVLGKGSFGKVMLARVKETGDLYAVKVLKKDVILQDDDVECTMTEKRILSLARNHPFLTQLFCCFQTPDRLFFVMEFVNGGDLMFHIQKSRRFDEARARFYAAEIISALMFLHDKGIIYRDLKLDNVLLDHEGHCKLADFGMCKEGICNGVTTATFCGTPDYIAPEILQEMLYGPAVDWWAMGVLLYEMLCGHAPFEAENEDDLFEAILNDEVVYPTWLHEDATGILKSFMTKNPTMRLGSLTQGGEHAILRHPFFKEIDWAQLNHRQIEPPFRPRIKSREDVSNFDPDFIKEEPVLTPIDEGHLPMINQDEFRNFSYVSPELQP

`C[C@@]1(C(=O)Nc2ccc(F)nc2)CCCN1c1nc(Nc2cc(C3CC3)n[nH]2)c2cccn2n1`: the inhibition was 5.85% in assay [1], 1.95% in assay [2], -3.36% in assay [3] and -5.57% in assay [4].
Take `C[C@]1(O)C[C@@H](c2nc(-c3ccc4ccc(-c5ccccc5)nc4c3)c3c(N)nccn32)C1`: the inhibition in assay [5] is 0.64%; in assay [6], 38.2%; in assay [7], 0.74%; in assay [8], -0.1%; in [9], -4.72%; in [10] it was 1.29%. For the same compound, the inhibition in [11] is -0.58%.

By inhibition is commonly meant the change of the read-out against control, counted positive when it falls.

Source of the values: ChEMBL document CHEMBL5653615 (J Biol Chem, 2013).
